Our source for the mortality values is patent US20150196033A1, “PESTICIDAL COMPOSITIONS AND PROCESSES RELATED THERETO” (priority 2012, published 2015).

For test [1], the system named is Beet Armyworm (BAW) (Spodoptera exigua). The test is described as follows: Bioassay on Beet Armyworm (BAW), 128-well diet tray assay. In kind it is in vivo. The note with it: Spodoptera exigua, 168 h, second instar larvae, five to seven days; for mortality at 50 µg/cm2: 50 μg/cm2 on artificial diet, read-out: Rating BAW (% Control (or Mortality)). How it is done: (§1) Certain molecules disclosed in this document were tested against BAW and CEW using procedures described in the following examples. In the reporting of the results, the “BAW & CEW Rating Table” was used (See Table Section).
Bioassays on BAW (Spodoptera exigua)
(§2) Trays were covered with a clear self-adhesive cover and held at 25° C., 14:10 light-dark for five to seven days. Percent mortality was recorded for the larvae in each well; activity in the eight wells was then averaged. The results are indicated in the table entitled “Table ABC: Biological Results” (See Table Section).

The subject of test [2] is Corn Earworm (CEW) (Helicoverpa zea). Put plainly: Bioassay on Corn Earworm (CEW), 128-well diet tray assay. To be noted: Helicoverpa zea, 168 h, second instar larvae, five to seven days; for mortality at 0.5 µg/cm2: 0.5 μg/cm2 on artificial diet, read-out: Rating CEW (% Control (or Mortality)), *Tested at 0.5 μg/cm2; for mortality at 50 µg/cm2: 50 μg/cm2 on artificial diet, read-out: Rating CEW (% Control (or Mortality)). In kind it is in vivo. How it is done: as §1
Bioassays on CEW (Helicoverpa zea)
as §2

With `Cc1cc(C)c(N2/C(=N/C(=O)Nc3ccc(-c4ncn(-c5ccc(OC(F)(F)F)cc5)n4)cc3)SCC2C)c(C)c1` (centres unmarked) [Molecule A40], the mortality at 12.5 µg/cm2 in test [1] (12.5 μg/cm2 on artificial diet, read-out: Rating BAW (% Control (or Mortality)), **Tested at 12.5 μg/cm2) is 50 to 100%; in test [2] (12.5 μg/cm2 on artificial diet, read-out: Rating CEW (% Control (or Mortality)), **Tested at 12.5 μg/cm2) it was 50 to 100%.
Consider `Cc1cc(C)cc(N2C(=O)CS/C2=N\C(=O)Nc2ccc(-c3nnc(-c4ccc(OC(F)(F)F)cc4)o3)cc2)c1` [Molecule A104], for which the mortality at 50 µg/cm2 in test [1] was determined as 0%. Also, the mortality at 0.5 µg/cm2 in test [2] was in the range of 50 to 100%.
With `CC(C)c1cccc(N/C(S)=N/C(=O)Nc2ccc(-c3ncn(-c4ccc(OC(F)(F)F)cc4)n3)cc2)c1` [Molecule A118], the mortality at 50 µg/cm2 in test [1] and in test [2] was 0% in each case.
As to `O=C(/N=C1\SCC(=O)N1c1ccccc1C(F)(F)F)Nc1ccc(-c2ncn(-c3ccc(OC(F)(F)F)cc3)n2)cc1` [Molecule A128], the mortality at 0.5 µg/cm2 lay in the range of 50 to 100% in test [1] (0.5 μg/cm2 on artificial diet, read-out: Rating BAW (% Control (or Mortality)), *Tested at 0.5 μg/cm2) and 50 to 100% in test [2].
On to `CC(C)c1ccccc1N/C(S)=C(\C#N)C(=O)Nc1ccc(-c2ncn(-c3ccc(OC(F)(F)F)cc3)n2)cc1` [Molecule A25, (Z)-2-cyano-3-((2-isopropylphenyl)amino)-3-mercapto-N-(4-(1-(4-(trifluoromethoxy)phenyl)-1H-1,2,4-triazol-3-yl)phenyl)acrylamide], for which the mortality at 50 µg/cm2 was 0% in test [1] and 0 to 50% in test [2].
With `Cc1cccc(C)c1N/C(S)=C/C(=O)Nc1ccc(-c2ncn(-c3ccc(OC(F)(F)F)cc3)n2)cc1` [Molecule A23, 3-((2,6-dimethylphenyl)amino)-3-thioxo-N-(4-(1-(4-(trifluoromethoxy)phenyl)-1H-1,2,4-triazol-3-yl)phenyl)propanamide], the mortality at 50 µg/cm2 in test [1] and in test [2] was 50 to 100% in each case.
Take `CCC1CS/C(=N\C(=O)Nc2ccc(-c3ncn(-c4ccc(OC(F)(F)F)cc4)n3)cc2)N1c1c(C)cc(C)cc1C` (centres unmarked) [Molecule A38]: the mortality at 50 µg/cm2 in test [1] and in test [2] was 50 to 100% each time.
Regarding `Cc1cc(C)c(N/C(=N\C(=O)Nc2ccc(-c3ncn(-c4ccc(OC(F)(F)F)cc4)n3)cc2)SCOC(=O)C(C)C)c(C)c1` [Molecule A59], the mortality at 50 µg/cm2 in test [1] and in test [2] was 50 to 100% throughout.
Regarding `Cc1ccc(N/C(S)=N/C(=O)Nc2ccc(-c3ncn(-c4ccc(OC(F)(F)F)cc4)n3)cc2)c(C(C)C)c1` [Molecule A84], the mortality at 50 µg/cm2 in test [1] was in the range of 50 to 100%. Further, the mortality at 0.5 µg/cm2 in test [2] was 50 to 100%.
Take `N#C/C(C(=O)Nc1ccc(-c2ncn(-c3ccc(OC(F)(F)F)cc3)n2)cc1)=C(/S)Nc1ccccc1-c1ccccc1` [Molecule A27, (Z)-3-([1,1′-Biphenyl]-2-ylamino)-2-cyano-3-mercapto-N-(4-(1-(4-(trifluoromethoxy)phenyl)-1H-1,2,4-triazol-3-yl)phenyl)acrylamide]: the figures for the mortality at 50 µg/cm2 in test [1] and in test [2] were 0% and 0 to 50%, respectively.
In the case of `CC(C)c1ccc(F)cc1N/C(S)=N/C(=O)Nc1ccc(-c2ncn(-c3ccc(OC(F)(F)F)cc3)n2)cc1` [Molecule A82], the mortality at 50 µg/cm2 in test [1] is 50 to 100%. In test [2], the mortality at 0.5 µg/cm2 lay in the range of 50 to 100%.
Consider `CC(C)c1cc(F)ccc1N/C(S)=N/C(=O)Nc1ccc(-c2ncn(-c3ccc(OC(F)(F)F)cc3)n2)cc1` [Molecule A116], for which the mortality at 50 µg/cm2 in test [1] was in the range of 50 to 100%. Further, the mortality at 0.5 µg/cm2 in test [2] was 50 to 100%.
`N#C/C(C(=O)Nc1ccc(-c2ncn(-c3ccc(OC(F)(F)F)cc3)n2)cc1)=C(/S)Nc1c(F)cccc1F` [Molecule A30, (Z)-2-Cyano-3-((2,6-difluorophenyl)amino)-3-mercapto-N-(4-(1-(4-(trifluoromethoxy)phenyl)-1H-1,2,4-triazol-3-yl)phenyl)acrylamide]: the mortality at 50 µg/cm2 in test [1] and in test [2] was 0% throughout.
For `COc1ccc(N/C(S)=N/C(=O)Nc2ccc(-c3ncn(-c4ccc(OC(F)(F)F)cc4)n3)cc2)c(C)c1` [Molecule A98], in test [1], the mortality at 50 µg/cm2 lay within 50 to 100%. Further, the mortality at 0.5 µg/cm2 in test [2] fell in the range of 50 to 100%.
`Cc1cccc(C)c1-n1c(C)cs/c1=N\C(=O)Nc1ccc(-c2ncn(-c3ccc(OC(F)(F)F)cc3)n2)cc1` [Molecule A42]: the mortality at 50 µg/cm2 in test [1] was 0 to 50%; in test [2], 0%.
For `COc1cc(C)c(N/C(S)=N/C(=O)Nc2ccc(-c3ncn(-c4ccc(OC(F)(F)F)cc4)n3)cc2)c(C)c1` [Molecule A50], the mortality at 50 µg/cm2 in test [1] and in test [2] was 50 to 100% in each case.
With `Cc1cc(C)c(N2C(=O)CS/C2=N\C(=O)Nc2ccc(-c3ncn(-c4ccc(OC(F)(F)F)cc4)n3)cc2)c(C)c1` [Molecule A36], the mortality at 50 µg/cm2 in test [1] and in test [2] was 50 to 100% throughout.
For the compound `Cc1cc(C)c(N2C(=O)C(C)S/C2=N\C(=O)Nc2ccc(-c3ncn(-c4ccc(OC(F)(F)F)cc4)n3)cc2)c(C)c1` (centres unmarked) [Molecule A37], the mortality at 50 µg/cm2 in test [1] and in test [2] was 50 to 100% each time.
Take `CCc1ccccc1NC(=O)NC(=O)Nc1ccc(-c2ncn(-c3ccc(OC(F)(F)F)cc3)n2)cc1` [Molecule A52]: the mortality at 50 µg/cm2 in test [1] and in test [2] was 50 to 100% throughout.
As for `Cc1ccccc1NC(=O)NC(=O)Nc1ccc(-c2ncn(-c3ccc(OC(F)(F)F)cc3)n2)cc1` [Molecule A51], the mortality at 50 µg/cm2 in test [1] and in test [2] was 50 to 100% each time.
Consider `CC(C)c1ccccc1N/C(S)=N/C(=O)Nc1ccc(-c2ccn(-c3ccc(OC(F)(F)F)cc3)n2)cc1` [Molecule A114], for which the mortality at 50 µg/cm2 in test [1] was in the range of 50 to 100%. Moreover, in test [2], the mortality at 0.5 µg/cm2 lay in the range of 50 to 100%.
Take `Cc1ccc(F)c(N2C(=O)CS/C2=N\C(=O)Nc2ccc(-c3ncn(-c4ccc(OC(F)(F)F)cc4)n3)cc2)c1` [Molecule A94]: in test [1], the mortality at 50 µg/cm2 was in the range of 50 to 100%. The mortality at 0.5 µg/cm2 in test [2] lay in the range of 50 to 100%.
With `CC(C)c1ccccc1NC(=O)NC(=O)Nc1ccc(-c2ncn(-c3ccc(OC(F)(F)F)cc3)n2)cc1` [Molecule A13, 1-(2-isopropylphenyl)-3-[[4-[1-[4-(trifluoromethoxy)phenyl]-1,2,4-triazol-3-yl]phenyl]carbamoyl]urea], the mortality at 50 µg/cm2 in test [1] and in test [2] was 50 to 100% throughout.
On to `Cc1ccc(F)c(N/C(S)=N/C(=O)Nc2ccc(-c3ncn(-c4ccc(OC(F)(F)F)cc4)n3)cc2)c1` [Molecule A89], for which the mortality at 50 µg/cm2 in test [1] fell in the range of 50 to 100%. The mortality at 0.5 µg/cm2 in test [2] lay within 50 to 100%.
Regarding `Cc1cc(C)c(-n2c(C)cs/c2=N\C(=O)Nc2ccc(-c3ncn(-c4ccc(OC(F)(F)F)cc4)n3)cc2)c(C)c1` [Molecule A43, (Z)-1-(3-mesityl-4-methylthiazol-2(3H)-ylidene)-3-(4-(1-(4-(trifluoromethoxy)phenyl)-1H-1,2,4-triazol-3-yl)phenyl)urea], the figures for the mortality at 50 µg/cm2 in test [1] and in test [2] were 0% and 50 to 100%, respectively.
The matching figures for `CC(C)c1cccc(N2C(=O)CS/C2=N\C(=O)Nc2ccc(-c3ncn(-c4ccc(OC(F)(F)F)cc4)n3)cc2)c1` [Molecule A120]: 0% and 0%.
The matching figures for `O=C(/N=C(\S)Nc1ccccc1C(F)(F)F)Nc1ccc(-c2ncn(-c3ccc(OC(F)(F)F)cc3)n2)cc1` [Molecule A127]: 50 to 100% and 0%.
On to `CCCc1ccccc1N/C(S)=N/C(=O)Nc1ccc(-c2ncn(-c3ccc(OC(F)(F)F)cc3)n2)cc1` [Molecule A64], for which the mortality at 50 µg/cm2 in test [1] fell in the range of 50 to 100%. In test [2], the mortality at 0.5 µg/cm2 lay in the range of 50 to 100%.
